Measured values reported in ChEMBL document CHEMBL1201862, “PubChem BioAssay data set” (2004).
The source made the active and inactive calls. For most assays here, no stated cut-off is given here; in the data, actives have a measured EC50 and inactives only a lower limit.

Experiments:
[1] = target: T1, Replicative DNA helicase DnaB (Mycobacterium tuberculosis, UniProt P9WMR3); test: DnaB intein splicing inhibitors, dose response, biochemical, cell-free fluorescence (AID 449749); assay type: functional
T1 sequence (P9WMR3 whole entry): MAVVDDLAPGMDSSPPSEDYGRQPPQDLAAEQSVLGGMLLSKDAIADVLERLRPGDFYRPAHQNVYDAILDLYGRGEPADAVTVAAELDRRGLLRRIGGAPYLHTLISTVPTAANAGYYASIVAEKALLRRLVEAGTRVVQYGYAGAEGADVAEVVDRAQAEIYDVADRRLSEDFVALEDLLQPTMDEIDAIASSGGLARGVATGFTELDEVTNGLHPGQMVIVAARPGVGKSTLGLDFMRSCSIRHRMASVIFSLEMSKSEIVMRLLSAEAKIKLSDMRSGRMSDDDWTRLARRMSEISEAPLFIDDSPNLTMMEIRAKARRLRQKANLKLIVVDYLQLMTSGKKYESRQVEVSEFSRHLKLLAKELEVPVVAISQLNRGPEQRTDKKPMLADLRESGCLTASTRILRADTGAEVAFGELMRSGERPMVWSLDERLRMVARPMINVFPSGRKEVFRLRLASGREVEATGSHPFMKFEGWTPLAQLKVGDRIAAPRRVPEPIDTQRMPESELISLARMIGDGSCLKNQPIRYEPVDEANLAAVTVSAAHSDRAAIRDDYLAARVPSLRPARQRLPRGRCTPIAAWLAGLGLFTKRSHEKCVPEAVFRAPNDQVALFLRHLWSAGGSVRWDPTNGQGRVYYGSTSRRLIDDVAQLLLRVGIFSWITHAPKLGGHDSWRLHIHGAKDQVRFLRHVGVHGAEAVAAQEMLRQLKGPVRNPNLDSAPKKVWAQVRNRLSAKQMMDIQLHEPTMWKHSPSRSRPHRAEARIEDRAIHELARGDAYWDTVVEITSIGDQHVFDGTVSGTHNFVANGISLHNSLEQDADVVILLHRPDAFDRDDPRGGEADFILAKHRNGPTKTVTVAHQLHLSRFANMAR

[2] = target: T2, Protein RecA (Mycobacterium tuberculosis, UniProt P9WHJ3); test: Fluorescence Cell-Free Homogeneous Dose Retest to Identify Inhibitors of RecA-Intein Splicing Activity. [Related pubchem assays (depositor defined):AID2097, AID2223, AID489010, AID492950]; assay type: functional
T2 sequence (P9WHJ3 whole entry): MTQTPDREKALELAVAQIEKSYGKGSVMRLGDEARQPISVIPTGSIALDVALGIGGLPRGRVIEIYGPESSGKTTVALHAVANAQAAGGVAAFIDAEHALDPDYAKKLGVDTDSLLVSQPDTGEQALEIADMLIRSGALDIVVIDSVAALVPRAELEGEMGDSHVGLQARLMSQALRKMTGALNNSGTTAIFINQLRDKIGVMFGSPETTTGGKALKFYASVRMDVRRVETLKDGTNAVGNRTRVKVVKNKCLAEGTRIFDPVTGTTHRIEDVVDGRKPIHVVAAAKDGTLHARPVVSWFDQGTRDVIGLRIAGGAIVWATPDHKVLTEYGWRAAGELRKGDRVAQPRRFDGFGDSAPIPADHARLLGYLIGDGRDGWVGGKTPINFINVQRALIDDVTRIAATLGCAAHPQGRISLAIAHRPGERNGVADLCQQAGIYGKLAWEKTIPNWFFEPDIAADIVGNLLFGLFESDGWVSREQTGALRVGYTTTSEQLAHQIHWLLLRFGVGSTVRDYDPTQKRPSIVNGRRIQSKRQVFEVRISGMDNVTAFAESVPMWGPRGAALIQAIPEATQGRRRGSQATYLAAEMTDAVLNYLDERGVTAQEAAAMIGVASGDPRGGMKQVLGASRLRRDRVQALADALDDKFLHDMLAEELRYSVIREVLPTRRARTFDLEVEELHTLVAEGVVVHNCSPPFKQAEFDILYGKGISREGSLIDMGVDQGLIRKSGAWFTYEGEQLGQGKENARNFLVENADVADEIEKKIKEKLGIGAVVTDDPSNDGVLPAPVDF

[3] = target: T3, Heat shock factor protein 1 (Mus musculus, UniProt P38532); test: enhancement of HSF1-driven luciferase signal – cell-based, NIH3T3, luminescence, dose retest, confirmation (AID 435004); assay type: functional;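 further: stress induced by proteasome inhibitor MG132 added 30 min after compound; luciferase reporter driven by HSF1 response element in NIH3T3 cells; actives raise luminescence as potentiators of the MG132 stress response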
T3 sequence (P38532 whole entry): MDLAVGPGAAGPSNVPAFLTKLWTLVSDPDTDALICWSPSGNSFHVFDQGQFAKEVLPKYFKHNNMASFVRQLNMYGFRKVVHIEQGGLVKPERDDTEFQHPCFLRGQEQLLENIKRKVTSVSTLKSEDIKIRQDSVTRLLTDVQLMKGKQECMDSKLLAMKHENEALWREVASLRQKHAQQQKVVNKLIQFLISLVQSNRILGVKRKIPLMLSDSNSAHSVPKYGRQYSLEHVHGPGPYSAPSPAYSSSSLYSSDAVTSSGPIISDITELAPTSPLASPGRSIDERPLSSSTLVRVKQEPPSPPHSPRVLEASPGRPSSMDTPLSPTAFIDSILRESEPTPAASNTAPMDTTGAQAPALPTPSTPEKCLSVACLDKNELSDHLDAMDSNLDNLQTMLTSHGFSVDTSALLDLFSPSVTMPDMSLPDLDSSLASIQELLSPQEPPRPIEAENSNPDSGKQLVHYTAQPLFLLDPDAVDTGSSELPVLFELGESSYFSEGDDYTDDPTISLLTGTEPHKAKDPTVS

[4] = target: T4, Corticotropin-releasing factor receptor 2/Corticotropin-releasing factor-binding protein (Homo sapiens, UniProt P24387+Q13324); test: activators of CRF receptor 2 with binding protein – uHTS hits, confirmation (AID 602473); assay type: functional; details: read-out: EC50_Mean
T4 sequence (Q13324 whole entry): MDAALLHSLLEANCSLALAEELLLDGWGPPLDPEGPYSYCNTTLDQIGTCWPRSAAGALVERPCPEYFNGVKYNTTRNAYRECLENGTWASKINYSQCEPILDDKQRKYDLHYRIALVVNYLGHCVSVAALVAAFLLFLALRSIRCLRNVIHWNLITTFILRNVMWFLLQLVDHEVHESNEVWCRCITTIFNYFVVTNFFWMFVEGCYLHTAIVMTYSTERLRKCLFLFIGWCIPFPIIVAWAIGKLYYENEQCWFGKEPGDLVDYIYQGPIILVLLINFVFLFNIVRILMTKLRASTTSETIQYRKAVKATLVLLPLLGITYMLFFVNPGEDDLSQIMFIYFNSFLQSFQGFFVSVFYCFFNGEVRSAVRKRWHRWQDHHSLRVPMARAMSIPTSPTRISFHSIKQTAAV
T4 sequence (P24387 whole entry): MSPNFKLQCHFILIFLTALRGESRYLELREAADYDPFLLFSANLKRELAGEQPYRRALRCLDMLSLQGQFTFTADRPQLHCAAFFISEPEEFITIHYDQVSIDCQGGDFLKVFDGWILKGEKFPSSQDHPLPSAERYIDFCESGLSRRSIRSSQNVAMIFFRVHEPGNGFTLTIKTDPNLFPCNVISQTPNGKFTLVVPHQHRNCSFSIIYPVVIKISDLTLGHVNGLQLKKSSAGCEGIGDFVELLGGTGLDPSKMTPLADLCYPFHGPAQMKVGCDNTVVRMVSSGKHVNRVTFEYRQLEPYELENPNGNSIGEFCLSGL

[5] = target: T4, Corticotropin-releasing factor receptor 2/Corticotropin-releasing factor-binding protein; test: Dose Response confirmation of uHTS hits for small molecule antagonists of the CRF-binding protein and CRF-R2 receptor complex.; assay type: functional; details: read-out: IC50_Mean
[6] = NIH3T3 cell viability loss – ATP luminescence, mouse fibroblasts, counter-screen, dose response (AID 2010); assay type: functional, cell-based;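 further: cells exposed to compound for about 90 hours before reading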
[7] = Trypanosoma cruzi growth suppression in host cells – NIH3T3 host cells, beta-gal luminescence, confirmation (AID 2044); assay type: functional, cell-based;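 further: intracellular parasites grown in NIH/3T3 mouse fibroblasts as host cells; luminescent beta-galactosidase reporter signal from transgenic T. cruzi replicating inside host cells; inhibitors lower the luminescence signal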
[8] = tested on: INS1; test: INS-1E survival protection against cytokine death – cell-based, luminescence, retest, dose response (AID 449756); assay type: functional; details: Rattus norvegicus;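 further: cell death triggered by IL-1 beta plus TNF-alpha plus IFN-gamma mixture; protective hits raise ATP signal compared with cytokine alone wells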
[9] = tested on: Streptococcus sp. 'group A'; test: Streptococcus pyogenes SK(-)GAS viability under kanamycin – luminescence, BacTiterGlo, confirmation, counter-screen for streptokinase expression inhibitor project, dose response (AID 1900); assay type: functional, organism-based
[10] = tested on: Streptococcus; test: GAS UMAA2166 growth inhibition – luminescence, BacTiterGlo, counter-screen for streptokinase expression inhibitor project, dose response (AID 1915); assay type: functional, organism-based;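 further: potency for reduction of bacterial viability or growth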

O=c1c2ccccc2nc2n1CCS2(=O)=O
AC50 [1]: 37.2 µM (active)
EC50 [2]: 12.9 µM (active)

CN(C)C(=O)c1ccc(=O)n(Cc2ccc(Cl)cc2Cl)c1
EC50 [3]: > 260 µM (inactive)

COc1cccc(N(CC(=O)N2CCc3ccccc3C2)S(C)(=O)=O)c1
EC50 [3]: > 260 µM (inactive)

CN(c1ccccc1)P(=O)(N1CC1)N1CC1
EC50 [4]: > 53 µM (inactive)
IC50 [5]: > 47.1 µM (inactive)

COc1cc(/C=C/C(=O)OCc2c(C)noc2C)ccc1OC(F)F
EC50 [3]: > 260 µM (inactive)

Cn1c(-c2ccc(-c3ccccc3)cc2)c[nH]c1=S
EC50 [4]: > 53 µM (inactive)
IC50 [5]: > 47.1 µM (inactive)

CC(C)c1n[nH]c2c1C(Cc1ccccc1)C(C#N)=C(N)O2 (stereo unspecified)
AC50 [1]: 38.7 µM (active)
EC50 [2]: 8.67 µM (active)

C#CCOCCOCCOCCNc1nc(N2CCN(C(=O)Cn3cc(CCO)nn3)CC2)nc(N2CCN(C(=O)[C@H](CCCCN)n3cc(CC(C)O)nn3)CC2)n1 (stereo partly specified)
EC50 [4]: > 53 µM (inactive)
IC50 [5]: > 47.1 µM (inactive)

COc1ccc(CCNc2oc(-c3ccccc3OC)nc2C#N)cc1
EC50 [3]: > 260 µM (inactive)

COc1ccc(Cl)cc1NC(=O)c1ccoc1C
EC50 [4]: > 53 µM (inactive)
IC50 [5]: > 47.1 µM (inactive)

CCOC(=O)NNC(=O)c1[nH]c2ccc(Br)cc2c1-c1ccccc1
EC50 [4]: > 53 µM (inactive)
IC50 [5]: > 47.1 µM (inactive)

NCCCCCc1nnc(SC/C=C/c2ccccc2)o1
EC50 [3]: > 260 µM (inactive)

O=[N+]([O-])c1ccc(Oc2cccc(Br)c2)c2ccncc12
AC50 [1]: > 380 µM (inactive)
EC50 [2]: 1.17 µM (active)

CCC1=Nc2cc(C(=O)NCCN3CCCC3)ccc2Sc2ccccc21
AC50 [1]: > 380 µM (inactive)
EC50 [2]: > 380 µM (inactive)

CCOC(=O)C(NCc1ccccn1)(NC(=O)c1cccnc1)C(F)(F)F (stereo unspecified)
EC50 [4]: > 53 µM (inactive)
IC50 [5]: > 47.1 µM (inactive)

COc1cc(CNC2CCCC2)cc(OC)c1
EC50 [3]: > 260 µM (inactive)

Fc1ccc(C2NC(S)=NC3=C2N2CCC3CC2)cc1 (stereo unspecified)
EC50 [3]: > 260 µM (inactive)

CC(NC(=O)CCCN1C(=O)c2ccccc2C1=O)c1ccc2c(c1)CCCC2 (stereo unspecified)
EC50 [3]: > 260 µM (inactive)

Cc1ccc(N2C(=O)SC(N(CC(=O)O)c3ccc(C)cc3)C2=O)cc1 (stereo unspecified)
EC50 [3]: > 260 µM (inactive)

O=C(NC(=S)N1CCN(C/C=C/c2ccccc2)CC1)c1ccc(Cl)nc1
EC50 [3]: > 260 µM (inactive)

O=c1c2cc(N3CCOCC3)ccc2[nH]c(=S)n1Cc1ccccn1
EC50 [3]: > 260 µM (inactive)

Cc1n[nH]c2c1C1(CCN(C(=O)OCc3ccccc3)CC1)C(C#N)=C(N)O2
AC50 [1]: 13.5 µM (active)
EC50 [2]: 1.59 µM (active)

Nc1ccc2nc(N3CCOCC3)sc2c1
AC50 [1]: 93.7 µM (active)
EC50 [6]: 5.16 µM (active)
EC50 [7]: 1.96 µM (active)
EC50 [2]: 23.7 µM (active)

Cc1ccccc1Cn1ccc(=NCc2ccccc2)cc1
AC50 [8]: > 260 µM (inactive)

O=C(Nc1cc([N+](=O)[O-])ccc1O)c1cccc(NC(=O)c2ccco2)c1
EC50 [9]: 5.58 µM (active)
EC50 [10]: 6.8 µM (active)

Cn1cccc1/C=N/NC(=O)Cc1cccs1
AC50 [8]: > 260 µM (inactive)

Cc1cc2[nH]ncc2cc1NC(=S)NC(=O)c1ccccc1
AC50 [1]: 178 µM (active)
EC50 [2]: > 380 µM (inactive)

Cc1oc(-c2ccccc2Cl)nc1CN1C(=O)CN=C(c2ccccc2)c2ccccc21
EC50 [3]: > 260 µM (inactive)

COC(=O)Nc1ccc(S(=O)(=O)N2CCC(C(=O)N3CCCC(C)C3)CC2)cc1 (stereo unspecified)
EC50 [3]: > 260 µM (inactive)

COc1ccc(CN(C)C(=O)c2ccc(NS(=O)(=O)c3ccc(F)cc3)cc2)c(OC)c1OC
AC50 [8]: > 260 µM (inactive)

CC1=NNC(=O)C1C(c1ccc(F)cc1)C(C#N)C#N (stereo unspecified)
AC50 [1]: 7.09 µM (active)
EC50 [2]: 2.83 µM (active)

Cn1cnc([N+](=O)[O-])c1Sc1nnc(-c2cccnc2)n1C
AC50 [1]: 38.1 µM (active)
EC50 [2]: 13.3 µM (active)

O=C(O)c1ccc(N(Cc2ccccc2)S(=O)(=O)c2ccccc2)cc1
EC50 [3]: > 260 µM (inactive)
